In paper PMC6199251, “Oncolysis with DTT-205 and DTT-304 generates immunological memory in cured animals” (Cell Death & Disease, 2018):

Columns and labels:
[1] = test system: caspase-3; experiment: Caspase-3 activation (immunostaining of cleaved caspase-3); format: cell-based, human; details: U2OS, 0.65 to 10 µM DTT peptides; staurosporine as positive control
Experimental: Fig. 3 Cell death induced by DTT-205 and DTT-304. Human osteosarcoma U2OS cells were treated with 0.65 to 10 µM DTT peptides for the indicated time and following assessed for the activation of caspase-3 (CASP3). The pan-kinase inhibitor staurosporine (STS) was used as positive control. Representative images (a, b) and quantifications of CASP3 activation (c, d) are depicted while pyknosis was assessed by measuring the decrease in Hoechst 33342-stained nuclear area (e, f) by conventional microscopy (size bar equals 10 µm; mean ± SD of triplicate assessments, Student’s t test, […], **p < 0.01, ***p < 0.001). In order to assess the cell death modality, U2OS cells were pretreated with the ferroptosis inhibitor ferrostatin-1 (FER-1), the pan-caspase inhibitor zVAD-fmk (zVAD) or the antioxidants N-actylcystein (NAC) and reduced glutathione (GSH) before the addition of 2.5 µM of DTT peptides (g, h). […] Mouse embryonic fibroblasts (MEFs) that were either wild type, single- or double knockout for the proapoptotic proteins Bax and/or Bak were treated with 0.65 to 10 µM of DTT-205 or DTT-304 and viability was assessed by means of an exclusion dye in epifluorescence microscopy (k, l; mean ± SD of triplicate assessments. Student’s t test, […], **p < 0.01, ***p < 0.001). […]

[2] = test system: U2OS cells; experiment: Lipid droplet formation (electron microscopy, Nile Red staining); format: cell-based, human; details: 0.65 to 10 µM, 6 h, epifluorescence microscopy
Experimental: Fig. 1 DTT peptides induce the formation of lipid droplets. Human osteosarcoma U2OS cells were treated with 2.5 µM of either DTT-205 or DTT-304 for 6 h. Cells were fixed and subjected to electron microscopy. The overview micrographs in the upper panel depict necrotic morphologies (N) of some of the treated cells and the high magnification micrographs in the lower panel show the formation of lipid droplets (L) in intact cells. Size bars equals 10 µm (upper panel) and 1 µm (lower panel). Representative images (a) and quantifications (b, c) are depicted (mean ± SD of a minimum of five view fields). The formation of lipid droplets in response to increasing doses from 0.65 to 10 µM DTT peptides was quantified by means of the lipophilic dye Nile Red at 6 h and 24 h post treatment in epifluorescence microscopy. Representative images (d) and quantifications (e, f) are shown (mean ± SD of triplicate assessments, Student’s t test, […], **p < 0.01). Temperature dependency of the lipid droplet formation was assessed by keeping the cell cultures upon treatment with 0.65 to 10 µM DTT-205 (g) and DTT-304 (h) at the indicated temperature for 6 h before Nile Red staining. […]
Figure S2. […] The formation of lipid droplets in response to increasing doses from 0.65 to 10 µM DTT-peptides was quantified by means of the lipophilic dye Nile Red in epifluorescence microscopy. […]

[3] = cited from earlier work
Source text: When added to human cancer cells, DTT-205 or DTT-304 stimulated a necrosis-like disruption of cellular morphology. […] Staining with the red fluorescent lipophilic dye Nile red confirmed the formation of lipid droplets in the cytoplasm of cells treated with DTT-205 or DTT-304 that occurred in a time and dose-dependent fas ...

Row | Compound | caspase-3 activation (fraction of cells positive for mature caspase-3 fragment) [1] | formation of lipid droplets [2] | cytotoxic potential in the presence of serum [3]
1 | CN[C@@H]1C[C@H]2O[C@@](C)([C@@H]1OC)n1c3ccccc3c3c4c(c5c6ccccc6n2c5c31)C(=O)NC4 [staurosporine] | a significant fraction of cells | – | –
2 | LTX-315 | – | but not the LTX compounds, induced lipid droplets | lost their cytotoxic potential in the presence of serum
